Peptide text beside a SMILES is read from it. * marks the point of attachment. Cbz = O=C(OCc1ccccc1)*
Test system: Ca2+ response
Assay: Ca2+ response measured with aequorin in COS-7 cells expressing IP3R3(Q-FR/A-AA)
Assay type: cell-based, African Green Monkey
Conditions: serum re-stimulated 4 h with MG132, ATP
Protocol: FIGS. 1A, 1B, 1C, 1D, 1E, 1F, 1G, and 1H show FBXL2-mediated degradation of IP3R3 controls Ca2+ flux and sensitivity to apoptosis. […] Left, two representative traces. Right, quantification of three independent experiments. P values were calculated by one-way ANOVA and multiple-comparisons test. Error bars indicate s.e.m. 1b, 1c, and 1d, Apoptosis evaluated after treatment with H2O2 using automated nuclei count analysis of twenty randomly chosen fields following a 16 h treatment (1b), immunoblot detection of cleaved PARP and cleaved caspase-3 following a 3 h treatment (1c), and automated analysis of cells with released cytochrome c (Cyt c) from 80 randomly chosen fields following a 3 h treatment (1d). […] P values were calculated by one-way ANOVA and multiple-comparisons test. […] Left, representative traces show concentrations of cytosolic Ca2+ measured with aequorin. Right, quantification of three independent experiments. P values were calculated by one-way ANOVA and multiple-comparisons test. […] Apoptosis shown in 1h was evaluated as in 1b, except that H2O2 treatment was for 5 h. Analysis of cytochrome c release shown in 1i was evaluated as in 1d. P values were calculated by unpaired t-test. […]
FIGS. 7A, 7B, 7C, 7D, 7E, 7F, 7G, 7H, and 7I show FBXL2 controls Ca2+ mobilization and Ca2+-mediated apoptosis. […] P values were calculated by one-way ANOVA and multiple-comparisons test. […]

CC(C)C[C@@H](C=O)NC(=O)[C@H](CC(C)C)NC(=O)[C@H](CC(C)C)NC(=O)OCc1ccccc1 [MG132] (Cbz-Leu-Leu-Leu-aldehyde)
Ca2+ response: did not produce an increase of the Ca2+ response

— US11583525B2, “Geranylgeranyltransferase I inhibitor for treatment of a PTEN defective cancer” (H. LEE MOFFITT CANCER CENTER AND RESEARCH INSTITUTE, INC., priority 2017, dated 2023)
